Data taken from patent publication US8541572B2.

Each compound was assayed on TNF-α production in LPS-stimulated human whole blood (assay: Inhibition of TNF-α production from human whole blood (hWBA)). Conditions: Homo sapiens, IC50 for TNF-α production, LPS-stimulated human whole blood; read-out: hWBA.
Assay type: cell-based

Row | IC50 [nM] | Structure (SMILES)
1 | 1000 | COc1ccc2c(c1)C(=O)N(C[C@]1(C#Cc3ccc(C(=O)NS(C)(=O)=O)nc3)NC(=O)NC1=O)C2 [Compound 901]
2 | 1370 | COc1ccc2c(c1)C(=O)N(C[C@@]1(C#Cc3ccc(C(=O)NS(C)(=O)=O)nc3)NC(=O)NC1=O)C2 [Compound 902]
3 | 382 | COc1ccc2c(c1)C(=O)N(C[C@@]1(C#Cc3ccc(C4(C5CCC5)NC(=O)NC4=O)cc3)NC(=O)NC1=O)C2 (stereo partly drawn) [Compound 906]
4 | 292 | COc1ccc2c(c1)C(=O)N(C[C@@]1(C#Cc3ccc4oc(C5(C)NC(=O)NC5=O)cc4c3)NC(=O)NC1=O)C2 (stereo partly drawn) [Compound 909]
5 | 20 | CCN1CCN(C(=NO)c2ccc(C#C[C@]3(CN4Cc5ccc(OC)cc5C4=O)NC(=O)NC3=O)cc2)CC1 [Compound 911]

Same assay, conditions: Homo sapiens, IC50 for inhibition of TNF-α production, LPS-stimulated human whole blood; read-out: hWBA

Row | IC50 [nM] | Structure (SMILES)
6 | 651 | CSc1ccc2c(c1)C(=O)N(C[C@@]1(C#Cc3cccnc3)NC(=O)NC1=O)C2 [Compound 312]

Same assay, conditions: IC50 for TNF-α production, LPS-stimulated human whole blood; read-out: hWBA

Row | IC50 [nM] | Structure (SMILES)
7 | 841 | C#C[C@]1(CN2Cc3ccc(OC)c(F)c3C2=O)NC(=O)NC1=O [Compound 23]
8 | 1000 | COc1ccc2c(c1)C(=O)N(C[C@]1(C#Cc3cnc(N)c(C(=O)O)c3)NC(=O)NC1=O)C2 [Compound 903]
9 | 10000 | COc1ccc2c(c1)C(=O)N(C[C@@]1(C#Cc3cnc(N)c(C(=O)NS(C)(=O)=O)c3)NC(=O)NC1=O)C2 [Compound 904]
10 | 10000 | COc1ccc2c(c1)C(=O)N(C[C@]1(C#Cc3ccc(C(=O)O)s3)NC(=O)NC1=O)C2 [Compound 905]
11 | 208 | COc1ccc2c(c1)C(=O)N(C[C@@]1(C#Cc3ccc(C4(C)NC(=O)NC4=O)s3)NC(=O)NC1=O)C2 (stereo partly drawn) [Compound 907]
12 | 531 | COc1ccc2c(c1)C(=O)N(C[C@@]1(C#Cc3csc(C4(C)NC(=O)NC4=O)c3)NC(=O)NC1=O)C2 (stereo partly drawn) [Compound 908]
13 | 545 | COc1ccc2c(c1)C(=O)N(C[C@@]1(C#Cc3ccc4oc(C5(C)NC(=O)NC5=O)c(C)c4c3)NC(=O)NC1=O)C2 (stereo partly drawn) [Compound 910]
14 | 153 | COc1ccc2c(c1)C(=O)N(C[C@@]1(C#Cc3ccc(C(=NO)N4CCSCC4)cc3)NC(=O)NC1=O)C2 [Compound 912]
15 | 45 | COc1ccc2c(c1)C(=O)N(C[C@@]1(C#Cc3ccc(C(=NO)N4CCCN(C)CC4)cc3)NC(=O)NC1=O)C2 [Compound 913]
16 | 186 | COc1ccc2c(c1)C(=O)N(C[C@@]1(C#Cc3ccc(C(=NO)N4CCC4)cc3)NC(=O)NC1=O)C2 [Compound 914]

Same assay, conditions: IC50 for inhibition of TNF-α production, LPS-stimulated human whole blood; read-out: hWBA

Row | IC50 [nM] | Structure (SMILES)
17 | 226 | COc1ccc2c(c1F)C(=O)N(C[C@@]1(C#Cc3ccc4c(=O)[nH][nH]c4c3)NC(=O)NC1=O)C2 [Compound 301]
18 | 723 | COc1ccc2c(c1)C(=O)N(C[C@@]1(C#Cc3cc(F)c4c(O)n[nH]c4c3)NC(=O)NC1=O)C2 [Compound 302]
19 | 281 | COc1ccc2c(c1F)C(=O)N(C[C@@]1(C#Cc3ccc4c(c3)CN(C)C(=O)N4)NC(=O)NC1=O)C2 [Compound 307]
20 | 101 | COc1ccc2c(c1)C(=O)N(C[C@@]1(C#Cc3ccc4c(c3)c(N)nn4CCN(C)C)NC(=O)NC1=O)C2 [Compound 705]
21 | 1530 | COc1ccc2c(c1)C(=O)N(C[C@@]1(C#Cc3ccc4c(c3)c(O)nn4C)NC(=O)NC1=O)C2 [Compound 712]
22 | 456 | COc1ccc2c(c1)C(=O)N(C[C@@]1(C#Cc3ccc4c(O)nn(C)c4c3)NC(=O)NC1=O)C2 [Compound 715]
23 | 163 | COc1ccc2c(c1)C(=O)N(C[C@@]1(C#Cc3ccc4c(CN(C)C)n[nH]c4c3)NC(=O)NC1=O)C2 [Compound 728]
24 | 1010 | COc1ccc2c(c1)C(=O)N(C[C@@]1(C#Cc3ccc4c(-c5ccncc5)n[nH]c4c3)NC(=O)NC1=O)C2 [Compound 734]
25 | 195 | COc1ccc2c(c1)C(=O)N(C[C@@]1(C#Cc3ccc(CC4CCN(C)CC4)nc3)NC(=O)NC1=O)C2 [Compound 739]
26 | 128 | COc1ccc2c(c1)C(=O)N(C[C@@]1(C#Cc3ccc(-c4cc(N)[nH]n4)cc3)NC(=O)NC1=O)C2 [Compound 747]
27 | 156 | COc1ccc2c(c1)C(=O)N(C[C@@]1(C#Cc3ccc4c(O)n[nH]c4c3)NC(=O)NC1=O)C2 [Compound 748]
